Assay results from patent US9873702B2, “Heterocyclic compounds as biogenic amine transport modulators” (Southern Research Institute, priority 2014, dated 2018).
Where two headings read alike, the source gives them in different places.

Assays:
[1] = molecular target: T1, DAT (Rattus norvegicus, UniProt P23977); assay: Dopamine transporter binding, inhibition of [^3H]WIN35428 binding in rat caudate membranes; conditions: for EC50: read-out: WIN Binding EC50 (μM ± SD)
T1 construct: from tissue; host or cells: rat caudate membranes
T1 sequence (P23977 whole entry): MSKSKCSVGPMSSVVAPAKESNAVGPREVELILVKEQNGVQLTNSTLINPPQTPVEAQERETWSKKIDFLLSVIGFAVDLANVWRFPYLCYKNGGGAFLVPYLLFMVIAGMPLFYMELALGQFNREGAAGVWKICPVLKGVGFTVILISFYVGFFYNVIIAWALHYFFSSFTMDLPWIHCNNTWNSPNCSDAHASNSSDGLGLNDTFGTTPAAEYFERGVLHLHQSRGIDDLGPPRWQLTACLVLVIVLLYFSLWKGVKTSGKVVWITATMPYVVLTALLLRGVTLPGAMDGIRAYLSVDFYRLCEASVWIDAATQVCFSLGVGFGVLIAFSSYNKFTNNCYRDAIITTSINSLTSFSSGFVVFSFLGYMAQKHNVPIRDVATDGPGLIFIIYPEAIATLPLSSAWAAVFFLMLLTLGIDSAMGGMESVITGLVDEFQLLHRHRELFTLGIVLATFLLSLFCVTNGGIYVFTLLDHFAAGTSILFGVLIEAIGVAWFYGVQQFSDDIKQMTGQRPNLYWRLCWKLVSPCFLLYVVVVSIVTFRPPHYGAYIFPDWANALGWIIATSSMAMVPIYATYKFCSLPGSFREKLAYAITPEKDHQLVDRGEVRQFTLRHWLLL
Method: The ability of test drugs to inhibit [^3H]WIN35428 binding to DAT in rat caudate membranes was assessed as follows. For each experiment, caudates from four rat brains were suspended in 15 mL ice cold assay buffer (50 mM sodium phosphate pH 7.4) and homogenized using a polytron (setting 6, 20 sec). The homogenate was centrifuged at 30,000×g for 10 minutes at 4° C. The pellet was resuspended with vigorous vortexing in 15 mL fresh ice cold assay buffer, and the centrifugation was repeated. The pellet was resuspended in 15 mL fresh ice cold assay buffer with vigorous vortexing followed by six strokes with a glass-on-glass hand-held homogenizer and was diluted to a final volume of 235 mL in ice cold assay buffer. [^3H]WIN35428 was diluted to 10 nM in assay buffer that contained 25 μg/mL chymostatin, 25 μg/mL leupeptin, 0.1 mM EDTA, and 0.1 mM EGTA. Each assay tube contained 0.75 mL membrane preparation, 0.15 mL test drug diluted in assay buffer containing 1 mg/mL bovine serum albumin, and 0.1 mL [^3H]WIN35428 preparation (final concentration of 1 nM). Assays were initiated by the addition of membranes and were terminated after 2 hours at 25° C. by rapid vacuum filtration. Retained tritium was measured as described. The data from three experiments were pooled and fit to a dose-response curve equation (using Kaleidagraph), to yield an Emax and EC50 value.

[2] = molecular target: norepinephrine transporter (NET) (Rattus norvegicus, UniProt Q9WTR4); assay: Norepinephrine reuptake ([^3H]norepinephrine uptake) inhibition in rat brain synaptosomes; conditions: for NE Uptake Emax (% I ± SD): maximal inhibition from dose-response fit
[3] = molecular target: T2, dopamine transporter (DAT) (Rattus norvegicus, UniProt P23977); assay: Dopamine transporter-mediated [^3H]MPP^+ release, shift of D-amphetamine-induced release, rat caudate synaptosomes; type: biochemical; set-up: Freshly removed caudate was homogenized in 10% ice-cold sucrose; from tissue; host or cells: rat caudate synaptosomes; conditions: for Kb: apparent Ke from shift of D-amphetamine-induced [^3H]MPP^+ release, compound at the concentration of column 1, read-out: Ke App; for Apparent Kc: [3H]MPP+ release, Apparent Kc = [Blocker]/((EC50-2/EC50-1) − 1), negative when shifted EC50 is less than control
T2 sequence (P23977 whole entry): as above

[4] = molecular target: T3, serotonin transporter (SERT) (Rattus norvegicus, UniProt P31652); assay: Serotonin reuptake ([^3H]serotonin uptake) inhibition in rat brain synaptosomes; type: biochemical
T3 construct: Freshly removed whole brain minus cerebellum and caudate was homogenized; from tissue; host or cells: rat whole brain minus cerebellum and caudate, synaptosomes
T3 sequence (P31652 whole entry): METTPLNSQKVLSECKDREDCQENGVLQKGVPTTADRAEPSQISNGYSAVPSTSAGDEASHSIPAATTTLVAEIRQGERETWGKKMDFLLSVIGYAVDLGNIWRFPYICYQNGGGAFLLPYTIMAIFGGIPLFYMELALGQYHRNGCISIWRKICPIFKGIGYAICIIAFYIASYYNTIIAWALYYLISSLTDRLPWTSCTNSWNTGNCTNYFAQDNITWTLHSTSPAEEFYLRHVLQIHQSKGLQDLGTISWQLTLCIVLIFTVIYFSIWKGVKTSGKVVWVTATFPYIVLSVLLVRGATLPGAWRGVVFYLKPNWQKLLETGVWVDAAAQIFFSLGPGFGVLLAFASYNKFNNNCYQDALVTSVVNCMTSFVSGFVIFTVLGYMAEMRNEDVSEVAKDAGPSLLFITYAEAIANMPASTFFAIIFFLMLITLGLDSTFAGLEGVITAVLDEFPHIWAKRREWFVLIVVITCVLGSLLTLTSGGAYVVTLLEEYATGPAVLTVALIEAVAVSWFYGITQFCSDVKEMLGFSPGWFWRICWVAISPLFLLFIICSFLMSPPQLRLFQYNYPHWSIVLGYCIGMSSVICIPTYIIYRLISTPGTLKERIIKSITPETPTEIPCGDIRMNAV

[5] = molecular target: T2, dopamine transporter (DAT); assay: Dopamine reuptake ([^3H]dopamine uptake) inhibition in rat brain synaptosomes
Method: Freshly removed caudate was homogenized in 10% ice-cold sucrose with 12 strokes of a hand-held Potter-Elvehj em homogenizer followed by centrifugation at 1000×g for 10 min. The supernatants were saved on ice and used immediately. Transporter activity was assessed using 5 nM [^3H]dopamine. […] The selectivity of the uptake assay for dopamine active transporter (DAT) was optimized by including 100 nM citalopram and 100 nM desipramine as blockers of serotonin transporter (SERT) and norepinephrine transporter (NET) in the sucrose solution and assay buffer. Uptake inhibition assays were conducted at 25° C. and were initiated by adding 100 μl of tissue to 900 μL assay buffer containing test drug and [^3H]dopamine. Test drugs were diluted in assay buffer containing 1 mg/mL bovine serum albumin. Nonspecific uptake was measured by incubating in the presence of 10 μM indatraline. The reactions were stopped after 15 minutes by rapid vacuum filtration with a cell harvester (BRANDEL) over GF/B filters (Whatman) presoaked in wash buffer maintained at 25° C. (10 mM Tris-HCl, pH 7.4/150 mM NaCl). Filters were rinsed with 6 mL wash buffer and retained tritium was quantified by a MicroBeta liquid scintillation counter (PerkinElmer) after overnight extraction in 0.6 mL of liquid scintillation cocktail (Cytoscint, ICN). The data from three experiments were pooled and fit to a dose-response curve equation (using Kaleidagraph), to yield an Emax and EC50 value.
The data from three experiments were pooled and fit to a dose-response curve equation (using KaleidaGraph; Synergy Software, Reading, Pa.) to yield an Emax and IC50 value.

[6] = rat brain synaptosomes, 10 nM [^3H]norepinephrine
[7] = read-out: NE Uptake EC50 (nM ± SD), rat brain synaptosomes, 10 nM [^3H]norepinephrine, 10 min, 37° C.
[8] = Emax of D-amphetamine for [^3H]MPP^+ release in presence of 500 nM test compound
[9] = mean ± S.D., n = 3, read-out: SERT Uptake Emax
[10] = mean ± S.D., n = 3, read-out: SERT Uptake IC50
[11] = 2 h, read-out: DAT Binding εmax
[12] = DAT Uptake IC50, [3H]DA uptake inhibition, mean ± S.D., n = 3
[13] = IC50 for DAT Uptake Inhibition, rounded value as listed in Table 10
[14] = read-out: Emax for DAT Uptake Inhibition
[15] = read-out: NET Uptake IC50, mean ± S.D., n = 3

Structure (SMILES) | NE Uptake Emax (% I ± SD) [2, 6] [% I] | IC50 [2, 7] [nM] | Kb [3] [nM] | Emax [4, 9] [%] | IC50 [4, 10] [nM] | Emax [1, 11] [%] | IC50 [5, 12] [nM] | Emax ([5]; read-out: DAT Uptake Emax) [%] | NET Uptake Emax ([2]; mean ± S.D., n = 3) [%] | IC50 [2, 15] [nM] | further results
c1ccc(C(CCNc2nc(-c3ccc4[nH]ccc4c3)nc3ccccc23)c2ccccc2)cc1 [compound 21, N-(3,3-Diphenylpropyl)-2-(1H-Indol-5-yl)Quinazolin-4-Amine] | 77 ± 3 | 346 ± 59 | 886 |  |  |  |  |  |  |  | EC50 [1]: 0.2 µM; D-Amphetamine Emax (% ± SD) [3, 8]: 78 ± 2%; effect on the d-amphetamine Emax value, in words ([3]; d-amphetamine-induced DAT-mediated [^3H]MPP^+ release, blocking concentration ˜25 times IC50 for DAT uptake inhibition): no significant effect
CN(C)c1ncc(-c2nc(NCC(c3ccccc3)c3ccccc3)c3ccccc3n2)cn1 [compound 16, 2-(2-(Dimethylamino)pyrimidin-5-yl)-N-(2,2-diphenylethyl)quinazolin-4-amine] | 73 ± 4 | 181 ± 46 | 1820 | 55 ± 5 | 37 ± 18 | 76 ± 2 | 20 ± 1 | 73 ± 1 | 73 ± 4 | 181 ± 46 | EC50 [1]: 1.7 ± 0.2 µM; IC50 [5, 13]: 20 nM; Emax [5, 14]: 73%; D-Amphetamine Emax (% ± SD) [3, 8]: 101 ± 3%; Apparent Kc [3]: 1820 nM
c1ccc(C(CNc2nc(-c3ccc4nccn4c3)nc3ccccc23)c2ccc[nH]2)cc1 (centres unmarked) [compound 117, 2-(Imidazo[1,2-A]Pyridin-6-yl)-N-(2-Phenyl-2-(1H-Pyrrol-2-yl)Ethyl)Quinazolin-4-Amine] | 81 ± 2 | 88 ± 15 | 1600 | 56 ± 2 | 18 ± 4 | 42 ± 3 | 6.1 ± 1 | 64 ± 2 | 81 ± 2 | 88 ± 15 | IC50 [5, 13]: 6 nM; Emax [5, 14]: 64%; D-Amphetamine Emax (% ± SD) ([3]; Emax of D-amphetamine for [^3H]MPP^+ release in presence of 150 nM test compound): 105 ± 4%; Apparent Kc [3]: 1600 nM
CN(C)c1ccc(-c2nc(NCC(c3ccccc3)c3ccccc3)c3ccccc3n2)cc1 [SRI-29786] |  |  |  |  | 49 ± 27 | 100 ± 3 | 7.1 ± 2.2 |  | 68 ± 7 | 143 ± 61 | IC50 [5, 13]: 7 nM; Emax [5, 14]: 70%; Apparent Kc [3]: 1940 nM
c1ccc(C(Nc2nc(-c3ccc4[nH]ccc4c3)nc3ccccc23)c2ccccc2)cc1 [compound 13, N-Benzhydryl-2-(1H-indol-5-yl)quinazolin-4-amine] | 62 ± 5 | 5850 ± 1750 | 25800 |  |  |  |  |  |  |  | IC50 ([4]; rat brain synaptosomes, 5 nM [^3H]serotonin, 30 min, 25° C., read-out: 5HT Uptake EC50 (nM ± SD)): 6380 ± 2640 nM; Emax ([4]; rat brain synaptosomes, 5 nM [^3H]serotonin, maximal inhibition from dose-response fit, read-out: 5HT Uptake Emax (% I ± SD)): 56 ± 9%; EC50 [1]: 2.7 ± 0.3 µM; Emax ([1]; read-out: WIN Binding Emax (% I ± SD)): 77 ± 2%; IC50 ([5]; DA Uptake EC50 (nM ± SD), rat caudate synaptosomes, 5 nM [^3H]dopamine, 15 min, 25° C., three experiments pooled): 212 ± 49 nM; Emax ([5]; read-out: DA Uptake Emax (% I ± SD)): 71 ± 3%; D-Amphetamine Emax (% ± SD) ([3]; Emax of D-amphetamine for [^3H]MPP^+ release in presence of 5000 nM test compound): 96 ± 3%
Cc1cc2nccn2cc1-c1nc(NCC(c2ccccc2)c2ccncc2)c2ccccc2n1 (centres unmarked) [compound 151, 2-(7-Methylimidazo[1,2-A]Pyridin-6-yl)-N-(2-Phenyl-2-(Pyridin-4-yl)Ethyl)Quinazolin-4-Amine] |  |  | 400 |  | 2.4 ± 0.4 | 92 ± 4 | 1.9 ± 0.3 | 72 ± 2 | 61 ± 2 | 17 ± 4 | IC50 [5, 13]: 2 nM; Emax [5, 14]: 72%; D-Amphetamine Emax (% ± SD) ([3]; Emax of D-amphetamine for [^3H]MPP^+ release in presence of 50 nM test compound): 103 ± 3%; Apparent Kc [3]: 400 nM
OC(CNc1nc(-c2ccc3[nH]ccc3c2)nc2ccccc12)(c1ccccc1)c1ccccc1 [compound 81, 2-((2-(1H-Indol-5-yl)Quinazolin-4-yl)Amino)-1,1-Diphenylethanol] | 73 ± 6 | 203 ± 79 |  | 57 ± 2 | 35 ± 9 | 55 ± 3 | 11 ± 2 | 70 ± 2 | 73 ± 6 | 203 ± 79 | 
c1ccc(C(CNc2nc(-c3ccc4nccn4c3)nc3ccccc23)c2cccnc2)cc1 (centres unmarked) [compound 131, 2-(Imidazo[1,2-A]Pyridin-6-yl)-N-(2-Phenyl-2-(Pyridin-3-yl)Ethyl)Quinazolin-4-Amine] | 75 ± 3 | 78 ± 17 |  | 59 ± 3 | 35 ± 11 | 44 ± 3 | 21 ± 3 | 70 ± 2 | 75 ± 3 | 78 ± 17 | 
c1ccc(C(CNc2nc(-c3cnc4nccn4c3)nc3ccccc23)c2ccccn2)cc1 (centres unmarked) [compound 98, 2-(Imidazo[1,2-A]Pyrimidin-6-yl)-N-(2-Phenyl-2-(Pyridin-2-yl)Ethyl)Quinazolin-4-Amine] | 77 ± 2 | 132 ± 16 |  | 54 ± 2 | 28 ± 6 | 62 ± 7 | 18 ± 3 | 71 ± 2 | 77 ± 2 | 132 ± 16 | 
CN(C)c1ncc(-c2nc(NCCC(c3ccccc3)c3ccccc3)c3ccccc3n2)cn1 [compound 20, N-(3,3-Diphenylpropyl)-2-(2-(Dimethylamino)Pyrimidin-5-yl)Quinazolin-4-Amine] | 64 ± 5 | 8130 ± 2270 | 64600 |  |  |  |  |  |  |  | EC50 [1]: 2.2 ± 0.5 µM; D-Amphetamine Emax (% ± SD) ([3]; Emax of D-amphetamine for [^3H]MPP^+ release in presence of 12500 nM test compound): 103 ± 2%
Cc1cc(NS(C)(=O)=O)ccc1-c1nc(NCC(c2ccccc2)c2ccncc2)c2ccccc2n1 (centres unmarked) [SRI-31039] |  |  |  |  | 8 ± 2.8 | 72 ± 7 | 7.4 ± 2 |  | 71 ± 3 | 31 ± 7 | 
Cc1cc(NS(C)(=O)=O)ccc1-c1nc(NCC(c2ccccc2)c2ccccc2)c2ccccc2n1 [SRI-30828] |  |  |  |  | 20 ± 5 | 60 ± 7 | 8.9 ± 1.6 |  | 65 ± 3 | 144 ± 30 | 
CS(=O)(=O)Nc1ccc(-c2nc(NCC(c3ccccc3)c3ccccc3)c3ccccc3n2)c(Cl)c1 [SRI-31043] |  |  |  |  | 22 ± 5 | 30 ± 3 | 11 ± 1 |  | 67 ± 2 | 47 ± 10 | 
CS(=O)(=O)Nc1ccc(-c2nc(NCC(O)(c3ccccc3)c3ccccc3)c3ccccc3n2)cc1 [SRI-30504] |  |  |  |  | 50 ± 14 | 47 ± 7 | 11 ± 2 |  | 70 ± 2 | 426 ± 49 | 
Cn1cc2cc(-c3nc(NCC(c4ccccc4)c4ccccc4)c4ccccc4n3)ccc2n1 [compound 66, N-(2,2-Diphenylethyl)-2-(2-Methyl-2H-Indazol-5-yl)Quinazolin-4-Amine] | 71 ± 3 | 229 ± 43 |  | 61 ± 2 | 106 ± 19 | 58 ± 3 | 19 ± 4 | 69 ± 2 | 71 ± 3 | 229 ± 43 | 
OC(CNc1nc(-c2cnc3nccn3c2)nc2ccccc12)(c1ccccc1)c1ccccc1 [compound 99, 2-((2-(Imidazo[1,2-A]Pyrimidin-6-yl)Quinazolin-4-yl)Amino)-1,1-Diphenylethanol] | 76 ± 3 | 69 ± 18 |  | 56 ± 1 | 3.9 ± 0.4 | 34 ± 3 | 9.3 ± 1.1 | 65 ± 1 | 76 ± 9 | 69 ± 18 | 
